Measurements as given in PMC10215302 (Antibiotics, 2023).
Where two headings read alike, the source gives them in different places.

Legend:
S. aureus SA0077 = details: for MIC values: Table S1: SA0077 Abf (passages on antibiotic-free media)
[1] = test system: S. aureus (VISA/hVISA isolates; MprF P314L strains); details: MprF AAS P314L, cited from earlier work
S. aureus RN4220 = details: for change of MICs on deletion of SACOL1927 (yfhP): S. aureus mutant strain RN4220, allele replacement; for MIC: Table S4: RN4220
[2] = test system: S. aureus derivative strains
S. aureus SA0085 = details: for MIC values: Table S1: SA0085 Abf (passages on antibiotic-free media)
[3] = test system: S. aureus derivative strains; format: cell-based, Staphylococcus aureus; details: AUC of tested strain / AUC of S. aureus Mu50
[4] = SA0077, selecting agent DAP, passage 5
[5] = SA0077, selecting agent DAP, passage 20
[6] = SA0077, selecting agent DAP, passage 40
[7] = SA0077, selecting agent VAN, passage 0
[8] = SA0077, selecting agent VAN, passage 5
[9] = SA0077, selecting agent VAN, passage 20
[10] = SA0077, selecting agent VAN, passage 40
[11] = Table S4: SA0077, strain before selection
[12] = Table S1: RN4220 ∆ (strain with deletion in SACOL1927)
[13] = ATCC 29213, selecting agent DAP, passage 5
[14] = ATCC 29213, selecting agent DAP, passage 20
[15] = ATCC 29213, selecting agent DAP, passage 40
[16] = ATCC 29213, selecting agent VAN, passage 0
[17] = ATCC 29213, selecting agent VAN, passage 5
[18] = ATCC 29213, selecting agent VAN, passage 20
[19] = ATCC 29213, selecting agent VAN, passage 40
[20] = Table S4: ATCC 29213, strain before selection
[21] = SA0085, selecting agent DAP, passage 5
[22] = SA0085, selecting agent DAP, passage 20
[23] = SA0085, selecting agent DAP, passage 40
[24] = SA0085, selecting agent VAN, passage 0
[25] = SA0085, selecting agent VAN, passage 5
[26] = SA0085, selecting agent VAN, passage 20
[27] = SA0085, selecting agent VAN, passage 40
[28] = Table S4: SA0085, strain before selection
[29] = SA0422, selecting agent DAP, passage 5
[30] = SA0422, selecting agent DAP, passage 20
[31] = SA0422, selecting agent DAP, passage 40
[32] = SA0422, selecting agent VAN, passage 0
[33] = SA0422, selecting agent VAN, passage 5
[34] = SA0422, selecting agent VAN, passage 20
[35] = SA0422, selecting agent VAN, passage 40
[36] = Table S4: SA0422, strain before selection
[37] = SA0736, selecting agent DAP, passage 5
[38] = SA0736, selecting agent DAP, passage 20
[39] = SA0736, selecting agent DAP, passage 40Y (yellow colonies)
[40] = SA0736, selecting agent VAN, passage 0
[41] = SA0736, selecting agent VAN, passage 20
[42] = SA0736, selecting agent VAN, passage 40
[43] = Table S1: SA0736 DAP-W (40 passages on daptomycin, white colonies)
[44] = Table S1: SA0736 DAP-Y (40 passages on daptomycin, yellow colonies)
[45] = Table S4: SA0736, strain before selection

CCCCCCCCCC(=O)N[C@@H](Cc1c[nH]c2ccccc12)C(=O)N[C@H](CC(N)=O)C(=O)N[C@@H](CC(=O)O)C(=O)N[C@@H]1C(=O)NCC(=O)N[C@@H](CCCN)C(=O)N[C@@H](CC(=O)O)C(=O)N[C@H](C)C(=O)N[C@@H](CC(=O)O)C(=O)NCC(=O)N[C@H](CO)C(=O)N[C@@H]([C@H](C)CC(=O)O)C(=O)N[C@@H](CC(=O)c2ccccc2N)C(=O)O[C@@H]1C [DAP, daptomycin]
0.25 µg/mL: MIC (S. aureus SA0077; [7]) | MIC values (S. aureus SA0077) | MIC (S. aureus SA0077; [11]) | MIC values (S. aureus RN4220; Table S1: RN4220 WT) | MIC values (S. aureus RN4220; [12]) | MIC (S. aureus RN4220) | MIC (S. aureus ATCC 29213; [17]) | MIC (S. aureus SA0422; [32]) | MIC (S. aureus SA0422; [36]) | MIC (S. aureus SA0736; [40]) | MIC (S. aureus SA0736; [45])
>64 µg/mL: MIC (S. aureus SA0085; [23]) | MIC (S. aureus SA0422; [31]) | MIC (S. aureus SA0736; [39])
0.125 µg/mL: MIC (S. aureus ATCC 29213; [16]) | MIC (S. aureus ATCC 29213; [20])
32 µg/mL: MIC (S. aureus SA0077; [6]) | MIC (S. aureus ATCC 29213; [14]) | MIC (S. aureus SA0085; [22]) | MIC (S. aureus SA0736; [38])
2 µg/mL: MIC (S. aureus SA0077; [8]) | MIC (S. aureus SA0077; [9]) | MIC (S. aureus SA0077; [10]) | MIC ([1]; moderate increase) | MIC (S. aureus ATCC 29213; [18]) | MIC (S. aureus ATCC 29213; [19]) | MICs in derivatives of all strains after selection with vancomycin ([2]; selection with vancomycin, derivatives of all strains) | MIC (S. aureus SA0085; [26]) | MIC (S. aureus SA0085; [27]) | MIC (S. aureus SA0422; [35]) | MIC (S. aureus SA0736; [42])
did not change: change of MICs on deletion of SACOL1927 (yfhP) (S. aureus RN4220)
1 µg/mL: MIC (S. aureus SA0085; [25]) | MIC (S. aureus SA0422; [33]) | MIC (S. aureus SA0422; [34]) | MIC (S. aureus SA0736; [37])
no effect: effect on MIC [1]
8 to 32 µg/mL: MIC range by the 20th passage ([2]; all strains, 20th passage of daptomycin selection)
8 µg/mL: MIC (S. aureus SA0077; [5]) | MIC (S. aureus SA0422; [29])
64 µg/mL: MIC (S. aureus ATCC 29213; [15])
up to 32 mg/L: MIC correlated with mprF mutations ([2]; daptomycin-selected derivatives, after the 20th passage)
16 µg/mL: MIC (S. aureus SA0422; [30])
> 64 µg/mL: MIC values (S. aureus SA0736; [43]) | MIC values (S. aureus SA0736; [44])
0.5 µg/mL: MIC (S. aureus SA0077; [4]) | MIC (S. aureus ATCC 29213; [13]) | MIC (S. aureus SA0085; [21]) | MIC (S. aureus SA0085; [24]) | MIC values (S. aureus SA0085) | MIC (S. aureus SA0085; [28]) | MIC (S. aureus SA0736; SA0736, selecting agent VAN, passage 5) | MIC (S. aureus SA0736; [41])

vancomycin
8 µg/mL: MIC (S. aureus SA0077; [9]) | MIC (S. aureus SA0077; [10]) | MIC (S. aureus ATCC 29213; [19]) | MIC (S. aureus SA0085; [27]) | MIC (S. aureus SA0736; [41]) | MIC (S. aureus SA0736; [42])
2 µg/mL: MIC (S. aureus SA0077; [4]) | MIC (S. aureus ATCC 29213; [14]) | MIC (S. aureus ATCC 29213; [18]) | MIC (S. aureus SA0085; [22]) | MIC (S. aureus SA0422; [30]) | MIC (S. aureus SA0422; [31]) | MIC (S. aureus SA0422; [33])
4 to 8 µg/mL: MICs of derivative strains at the end of selection with vancomycin ([2]; derivative strains, end of vancomycin selection)
1 µg/mL: MIC (S. aureus SA0077; [7]) | MIC values (S. aureus SA0077) | MIC (S. aureus SA0077; [11]) | MIC (S. aureus ATCC 29213; [13]) | MIC (S. aureus SA0085; [21]) | MIC (S. aureus SA0085; [24]) | MIC values (S. aureus SA0085) | MIC (S. aureus SA0085; [28]) | MIC (S. aureus SA0422; [29]) | MIC (S. aureus SA0422; [32]) | MIC (S. aureus SA0422; [36])
4 µg/mL: MIC (S. aureus SA0077; [5]) | MIC (S. aureus SA0077; [6]) | MIC (S. aureus SA0077; [8]) | MIC (S. aureus ATCC 29213; [15]) | MIC (S. aureus SA0085; [23]) | MIC (S. aureus SA0085; [25]) | MIC (S. aureus SA0085; [26]) | MIC (S. aureus SA0422; [34]) | MIC (S. aureus SA0422; [35]) | MIC (S. aureus SA0736; [38]) | MIC (S. aureus SA0736; SA0736, selecting agent DAP, passage 40W (white colonies)) | MIC (S. aureus SA0736; [39]) | MIC values (S. aureus SA0736; [43]) | MIC values (S. aureus SA0736; [44])
0.5 µg/mL: MIC values (S. aureus RN4220; Table S1: RN4220 WT) | MIC values (S. aureus RN4220; [12]) | MIC (S. aureus RN4220) | MIC (S. aureus SA0736; [37]) | MIC (S. aureus SA0736; [40]) | MIC (S. aureus SA0736; [45])
did not change: change of MICs on deletion of SACOL1927 (yfhP) (S. aureus RN4220)
0.25 µg/mL: MIC (S. aureus ATCC 29213; [16]) | MIC (S. aureus ATCC 29213; [17]) | MIC (S. aureus ATCC 29213; [20])
decreased by one dilution: change of MICs after 10 passages in antibiotic-free media ([2]; vancomycin-selected derivatives, stability test)
0.4–1.0: PAP AUC ratio ([3]; after daptomycin selection)
1.0–1.2: PAP AUC ratio ([3]; after 40 passages in vancomycin)
